Measurements as given in patent US11980667B2, “Short TAT oligomers for drug delivery” (The Trustees of Columbia University in the City of New York, priority 2017, dated 2024).
“And” between values parts separate entries of the source, which are not always exact repeats. Equal values may be shown once.

Legend:
[1] = system: 9L glioma; experiment: IA-TCH versus IV delivery: uptake by multi-spectral imaging of gross specimens; type: in vivo, rat
Text: (§1) Comparison of […] and IV TAT delivery. Fisher 344 rats weighing about 200 g were utilized. During initial surgery under ketamine-xylazine isoflurane anesthesia 5×10^5 9 L cells were implanted 3 mm below the skull and 2-3 mm posterior and lateral to the bregma through a 1 mm craniotomy. […] The animals were assigned separately to IV and IA-TCH groups. On the day of drug delivery, animals were sedated with isoflurane and injected with ketamine/xylazine. The tail vein was cannulated for intravenous access. Under aseptic precautions, a tracheostomy and carotid cannulation were performed. Anesthesia was maintained by mechanical ventilation with isoflurane (1.8-2.2%). Thereafter animals were turned prone on a stereotactic frame. The skull was exposed and the region of tumor implantation was shaved to transparency. A laser Doppler probe was implanted on the skull with the aid of a plastic holder to assess cerebral/tumor blood flow. Rectal temperature, pulse pleth (volume), pulse oxygen saturation, EKG, expired and inspired gas composition, brain and skin blood flow with lase Doppler were continuously monitored.
(§2) Transient cerebral hypoperfusion and fluorescein-labeled TAT monomer injection. IA injections were made during TCH by the following method. Reduction of blood flow was achieved by bolus IV injections of adenosine (2 mg) and esmolol (2 mg), and cold saline (1.5 mL at 4° C.). Typically such an intervention decreases cerebral blood flow to about 20% of the baseline. The heart rate response varies from sinus bradycardia to a sinus pause. However, physiological parameters rapidly recover within 3-5 minutes. […] For each animal, a test IA injection was done prior to the onset of hypotension to ensure delivery of the desired injection volume and the injection sequence was resumed after bolus IV injections of hypotensive drugs.
Postmortem imaging. In preliminary experiments, known quantities of fluorescein-labeled TAT monomer was dissolved in intralipid and imaged using the multi-spectral imaging system. The multi-spectral imaging system contained two 470 nm light emitting diodes that evenly illuminated the test sample (Thor Labs Inc., NJ). An Evolve-512 (Photometerics Inc., Tucson, AZ) photon multiplying charge coupled device was used to image the sample through a 530 nm band pass filter. The camera is capable of performing background corrections and measuring the photon counts from the region of interest. Imaging conditions (sample, light source, and camera placements) were standardized throughout the experiment.
Immediately after sacrifice, the brains were harvested and immersed in cold saline. […] Samples were loaded on two capillary glass tubes that were placed alongside the tissue samples. Typically each specimen had 4 sections, one of which through the plane of the tumor was sent for frozen section, the remainder were placed in paraformaldehyde for paraffin blocks and histological sectioning.

[2] = Physiological changes during IA-TCH and IV delivery; type: in vivo, rat
Text: as §1, §2
Physiological parameters. Key parameters included inspired and expired gas composition, laser Doppler skin and brain/tumor blood flow, EKG for heart rate, pleth pulse, oxygen saturation, and rectal temperature which were continuously monitored. Data were analyzed at four time points: baseline, at the time of IA injection, 5 minutes after the start of injection, and at the end of the experiment. […] Immediately after sacrifice, brain tissue was harvested for imaging. All physiological data was recorded at 200 Hz by a Mac Lab data collection system.

[3] = system: C6 glioma; details: IA-TCH, 0.5 mg, N=3
Experimental: For in vivo tumor delivery studies, rats were implanted with C6 brain tumor cells as previously described. […] They were scarified 10 minutes later and the brains were harvested and sectioned.
Fluorescence and electron multiplying charge-coupled device imaging. Fluorescence imaging was done with a white light excitation through a 470 nm filter with central frequency. Emission was observed through a 520 nm band pass filter using a fluorescence camera (Prosilica GE™ AVI Technologies Inc.). All images were normalized to the background and to the injected FITC-TAT concentrations—a sample of which was imaged alongside in a capillary tube.

Compound: N=C(N)NCCC[C@H](NC(=O)CNC(=O)c1ccc2c(c1)C(=O)OC21c2ccc(O)cc2Oc2cc(O)ccc21)C(=O)N[C@@H](CCCCN)C(=O)N[C@@H](CCCCN)C(=O)N[C@@H](CCCNC(=N)N)C(=O)N[C@@H](CCCNC(=N)N)C(=O)N[C@@H](CCC(N)=O)C(=O)N[C@@H](CCCNC(=N)N)C(=O)N[C@@H](CCCNC(=N)N)C(=O)N[C@@H](CCCNC(=N)N)C(=O)N1CCC[C@H]1C(=O)N1CCC[C@H]1C(=O)N[C@@H](CCC(N)=O)C(=O)N[C@@H](CCC(N)=O)C(=O)O [fluorescein-labeled TAT monomer, 5-FAM-GRKKRRQRRR PPQQ-COOH]
- Tumor concentration compared to brain tissue on the ipsi-lateral side ([1]; IA-TCH): 6.1 fold
- Contralateral fluorescence ([1]; IA-TCH, n = 6): 0.029 ± 0.012 AU
- Ipsi/contra-lateral ratio ([1]; IA-TCH, n = 6): 1.7 ± 0.5
- Ipsilateral fluorescence ([1]; IA-TCH, n = 6): 0.047 ± 0.019 AU
- Tumor fluorescence ([1]; IA-TCH, n = 6): 0.277 ± 0.139 AU
- Tumor/contralateral ratio ([1]; IA-TCH, n = 6): 10.1 ± 4.9
- Tumor/ipsilateral ratio ([1]; IA-TCH, n = 6): 6.1 ± 2.6
- Tumor concentration compared to brain tissue on the ipsi-lateral side ([1]; IV): 2.3 fold and 2.4 fold
- Ipsi/contra-lateral ratio ([1]; IV, n = 6): 1.1 ± 0.3
- Ipsilateral fluorescence ([1]; IV, n = 6): 0.028 ± 0.005 AU
- Tumor fluorescence ([1]; IV, n = 6): 0.063 ± 0.030 AU
- Tumor/contralateral ratio ([1]; IV, n = 6): 2.7 ± 1.5
- Tumor/ipsilateral ratio ([1]; IV, n = 6): 2.4 ± 1.2
- Overall effectiveness of IA-TCH relative to IV ([1]; rat, in vivo): 4 ×
- CBF ([2]; IA-TCH, 5 min): 90 ± 32 % Δbase
- ETCO2 ([2]; IA-TCH, 5 min): 71 ± 17 % Δbase
- HR ([2]; IA-TCH, 5 min): 273 ± 59 BMP
- Isoflurane ([2]; IA-TCH, 5 min): 1.8 ± 0.8 ET %
- SaO2 ([2]; IA-TCH, 5 min): 95%
- Sk · BF ([2]; IA-TCH, 5 min): 104 ± 38 % Δbase
- Temp ([2]; IA-TCH, 5 min): 36.6 ± 1.1 °C
- CBF ([2]; IA-TCH, Base): 100 ± 0 % Δbase
- ETCO2 ([2]; IA-TCH, Base): 100 ± 0 % Δbase
- HR ([2]; IA-TCH, Base): 289 ± 19 BMP
- Isoflurane ([2]; IA-TCH, Base): 2.2 ± 0.2 ET %
- SaO2 ([2]; IA-TCH, Base): 98 ± 2%
- Sk · BF ([2]; IA-TCH, Base): 100 ± 0 % Δbase
- Temp ([2]; IA-TCH, Base): 37.1 ± 1.3 °C
- CBF ([2]; IA-TCH, End): 81 ± 13 % Δbase
- ETCO2 ([2]; IA-TCH, End): 92 ± 27 % Δbase
- HR ([2]; IA-TCH, End): 310 ± 11 BMP
- Isoflurane ([2]; IA-TCH, End): 2.2 ± 0.4 ET %
- Sk · BF ([2]; IA-TCH, End): 92 ± 16 % Δbase
- Temp ([2]; IA-TCH, End): 36.9 ± 1.1 °C
- CBF ([2]; IA-TCH, Injection): 29 ± 26 % Δbase
- ETCO2 ([2]; IA-TCH, Injection): 54 ± 50 % Δbase
- HR ([2]; IA-TCH, Injection): 63 ± 41 BMP
- Isoflurane ([2]; IA-TCH, Injection): 0.8 ± 0.9 ET %
- SaO2 ([2]; IA-TCH, Injection): 92 ± 11 %
- Sk · BF ([2]; IA-TCH, Injection): 18 ± 10 % Δbase
- Temp ([2]; IA-TCH, Injection): 36.6 ± 1.3 °C
- CBF ([2]; IV, 5 min): 73 ± 13b % Δbase
- ETCO2 ([2]; IV, 5 min): 85 ± 37 % Δbase
- HR ([2]; IV, 5 min): 267 ± 68 BMP
- Isoflurane ([2]; IV, 5 min): 2.1 ± 0.2 ET %
- SaO2 ([2]; IV, 5 min): 97 ± 4%
- Sk · BF ([2]; IV, 5 min): 106 ± 28 % Δbase
- Temp ([2]; IV, 5 min): 36.1 ± 0.9 °C
- CBF ([2]; IV, Base): 100 ± 0 % Δbase
- ETCO2 ([2]; IV, Base): 100 ± 0 % Δbase
- HR ([2]; IV, Base): 267 ± 17 BMP
- Isoflurane ([2]; IV, Base): 2.2 ± 0.3 ET %
- SaO2 ([2]; IV, Base): 100 ± 5%
- Sk · BF ([2]; IV, Base): 100 ± 0 % Δbase
- Temp ([2]; IV, Base): 35.9 ± 0.9 °C
- CBF ([2]; IV, End): 73 ± 12b % Δbase
- ETCO2 ([2]; IV, End): 86 ± 14 % Δbase
- HR ([2]; IV, End): 283 ± 10 BMP
- Isoflurane ([2]; IV, End): 2.1 ± 0.3 ET %
- SaO2 ([2]; IV, End): 99 ± 2%
- Sk · BF ([2]; IV, End): 116 ± 30 % Δbase
- Temp ([2]; IV, End): 36.5 ± 1.0 °C
- CBF ([2]; IV, Injection): 122 ± 21 % Δbase
- ETCO2 ([2]; IV, Injection): 75 ± 39 % Δbase
- HR ([2]; IV, Injection): 274 ± 31 BMP
- Isoflurane ([2]; IV, Injection): 0.4 ± 0.1 ET %
- SaO2 ([2]; IV, Injection): 97 ± 4%
- Sk · BF ([2]; IV, Injection): 144 ± 50a,# % Δbase
- Temp ([2]; IV, Injection): 35.9 ± 0.9 °C
- Deposition in tumor (semi-quantitative fluorescence imaging) [3]: preferentially targeted to the tumor mass in all animals
